Experimental data taken from paper PMC4976923, “Potent Allosteric Dengue Virus NS5 Polymerase Inhibitors: Mechanism of Action and Resistance Profiling” (PLoS Pathogens, 2016).
Like-named read-outs stand apart in the source and are kept apart here.

Legend:
[1] = system: DENV3 strain MY05-34640; details: A549; 48 hr; read-out: DENV3 HCI, EC50 (converted); cited from earlier work
[2] = system: DENV4, strain MY01-22713; details: A549; 48 hr; read-out: DENV4 HCI, EC50 (converted); cited from earlier work
[3] = target: DENV4 RdRp domain (aa 268–900) (Dengue virus type 4, UniProt P09866); assay: Thermo-denaturation assay, recombinant RdRp domain; type: binding; details: +50 μM compound; DMSO control 50
DENV4 RdRp domain (aa 268–900), sequence (P09866 2753-3387): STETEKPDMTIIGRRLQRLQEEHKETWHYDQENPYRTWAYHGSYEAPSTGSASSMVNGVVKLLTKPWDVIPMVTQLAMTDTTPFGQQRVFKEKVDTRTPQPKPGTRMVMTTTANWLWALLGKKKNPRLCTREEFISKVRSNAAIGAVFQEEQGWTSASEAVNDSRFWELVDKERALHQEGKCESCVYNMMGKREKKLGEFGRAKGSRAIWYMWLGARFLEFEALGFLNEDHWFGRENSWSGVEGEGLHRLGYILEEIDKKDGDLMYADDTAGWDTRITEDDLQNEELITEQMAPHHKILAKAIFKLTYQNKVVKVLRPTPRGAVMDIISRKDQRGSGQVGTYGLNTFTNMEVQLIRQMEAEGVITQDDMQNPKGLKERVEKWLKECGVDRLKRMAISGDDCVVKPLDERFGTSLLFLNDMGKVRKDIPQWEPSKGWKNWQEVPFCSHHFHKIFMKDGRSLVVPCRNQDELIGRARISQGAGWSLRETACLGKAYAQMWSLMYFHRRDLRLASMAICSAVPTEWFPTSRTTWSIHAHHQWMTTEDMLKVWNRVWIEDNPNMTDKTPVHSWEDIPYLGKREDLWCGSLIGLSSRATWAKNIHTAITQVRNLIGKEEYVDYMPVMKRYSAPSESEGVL
Procedure: Site-directed alanine mutations of DENV4 FL NS5 cDNA were performed using pET28-D4-MY01-22713 NS5FL [23] as a template, according to the manufacturer’s protocol (Stratagene, USA). Protein expressions of DENV1-4 FL NS5 and their stability analyses by thermo-fluorescence were performed as described previously. DENV de novo initiation and elongation FAPA assays were earlier described. […]
6 Fi g .5. Ef fects of N -pocket compounds on DENV pol ymerase thermo-stability. Melting
7 temperatur e (Tm) w as ass essed b y thermo-d enatur ation in presence of the S YPRO Oran ge
8 dye as described in Materials and Methods. (A-F) Representative meltin g curves of DEN V4
10 inhibitors or 5 % DMSO control. […]
16 controls treated with DMSO.

[4] = in vitro; type: cell-based
Procedure: (§1) A549, BHK-21 and Huh7 cells bearing stable DENV2 sub-genomic replicon or transiently electroporated DENV2-NGC replicon or infectious virus cDNAs were seeded into 384-well microplate (3,000 cells per well). After over-night incubation at 37°C with 5% CO2, the cells were treated with 2-fold serially diluted compounds, starting from 20 or 50 μM. At 48 hr of post-incubation, renilla luciferase activities were measured with the ViviRen live-cell substrate (Promega, USA) according to the manufacturer’s protocol. CellTiter-Glo reagent (Promega, USA) was then added to determine cytotoxic effects of compounds. For the HCV replicon assay, Huh-7.5 cells harboring the HCV replicon were seeded into a 96-well microplate (20,000 cells per well). At 48 hr after compound treatment, cells were assayed for firefly luciferase activity by using a Bright-Glo luciferase assay (Promega, USA). NITD-008, a nucleoside inhibitor of DENV and HCV was added as a control.

[5] = system: DENV2 replicon cells; assay: DENV2 replicon cells from HuH-7, BHK-21 and A549 backgrounds, range; type: cell-based; details: Dengue virus, range across cell backgrounds
[6] = system: DENV2-NGC Ren-LUC Replicon in HuH-7; assay: Stable HuH-7 DENV2-NGC renilla luciferase replicon assay; type: cell-based; details: read-out: HuH-7 DENV Replicon, DENV2, EC50
[7] = target: T1, DENV2 FL NS5 L511V (Dengue virus type 2, UniProt P14340, L3003V); type: binding; details: 50 µM compound; for Protein melting temperature, Tm, DENV2 FL NS5 L511V: DMSO 35.5
T1 construct: Recombinant DENV2 (A, C) and DENV4 (B, D) FL NS5 proteins bearing single or double amino acid changes; made in house

[8] = in vitro; type: cell-based; details: human; 4–5 days; read-out: CC50, HepG2
[9] = target: T2, DENV4 FL NS5 L512V (Dengue virus type 4, UniProt P09866, L2999V); type: binding; details: 50 µM compound; for Protein melting temperature, Tm, DENV4 FL NS5 L512V: DMSO 36.5
T2 construct: Recombinant DENV2 (A, C) and DENV4 (B, D) FL NS5 proteins bearing single or double amino acid changes; made in house
T2 sequence (P09866 2488-3387 L2999V): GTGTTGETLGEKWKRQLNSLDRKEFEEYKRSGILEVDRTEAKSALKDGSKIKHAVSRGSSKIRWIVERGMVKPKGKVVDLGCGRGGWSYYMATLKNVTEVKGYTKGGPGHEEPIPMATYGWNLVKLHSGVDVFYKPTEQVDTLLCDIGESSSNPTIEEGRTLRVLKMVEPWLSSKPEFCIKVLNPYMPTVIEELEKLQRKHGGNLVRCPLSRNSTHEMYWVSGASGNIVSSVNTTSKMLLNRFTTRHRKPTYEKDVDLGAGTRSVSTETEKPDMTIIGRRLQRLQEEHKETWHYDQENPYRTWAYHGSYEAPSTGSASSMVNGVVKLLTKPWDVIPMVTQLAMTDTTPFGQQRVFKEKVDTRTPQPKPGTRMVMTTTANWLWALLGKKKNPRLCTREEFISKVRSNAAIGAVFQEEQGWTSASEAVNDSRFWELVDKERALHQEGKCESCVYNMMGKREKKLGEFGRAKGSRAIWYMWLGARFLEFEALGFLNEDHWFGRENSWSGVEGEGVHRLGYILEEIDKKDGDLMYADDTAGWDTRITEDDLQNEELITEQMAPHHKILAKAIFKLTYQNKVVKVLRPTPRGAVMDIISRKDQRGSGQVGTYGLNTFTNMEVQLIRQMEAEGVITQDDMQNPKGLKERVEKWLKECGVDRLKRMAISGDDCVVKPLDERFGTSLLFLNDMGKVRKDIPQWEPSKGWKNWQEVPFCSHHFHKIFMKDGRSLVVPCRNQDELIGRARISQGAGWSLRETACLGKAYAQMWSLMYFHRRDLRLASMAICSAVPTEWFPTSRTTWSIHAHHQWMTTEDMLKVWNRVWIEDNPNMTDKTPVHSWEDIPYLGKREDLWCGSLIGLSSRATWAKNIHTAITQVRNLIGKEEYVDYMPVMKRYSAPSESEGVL

[10] = target: DENV4 RdRp (Dengue virus type 4, UniProt P09866); assay: Surface plasmon resonance binding assay (Biacore T200)
DENV4 RdRp, sequence (P09866 2753-3387): as the sequence (P09866 2753-3387) above
Procedure: Biotinylated DENV3 and DENV4 RdRp were captured on flow cells 2 and 4 respectively in 50 mM Tris/HCl, pH 7.5, 200 mM NaCl, 2 mM DTT, 0.05% Tween 20, and 3% DMSO at 4°C. Flow cell 1 and 3 were left blank to serve as a reference [37]. […] Compounds were injected at a flow rate of 30 μL/min, with 45 s contact time and 600 s dissociation, starting from the DMSO control and finishing with the highest concentration.

[11] = system: Control DENV2-NGC EGFP-replicon cells passaged in DMSO; assay: Control DENV2-NGC EGFP-replicon cells passaged in DMSO; type: cell-based; details: Dengue virus, DENV2, 48 h; 2 days
[12] = system: DENV2-NGC Ren-LUC Replicon in A549; assay: Stable A549 DENV2-NGC renilla luciferase replicon assay; type: cell-based; details: Dengue virus, 48 hr
Procedure: as §1
1 containing 2 % FBS, 1mM L-glutamine and 1 % penicillin-streptom ycin and incubated over-
At 24 h post-seeding, cells were inf ected with DENV1-4 at
3 multiplicity of infection [MOI] of 0.3-1 (DENV1, strain MY97- 10245, MOI = 0.5; DENV2,
5 MY01-22713; MOI = 0.5) and treated immediatel y with 10- point, 3-fold serially diluted
6 compounds (at final 0.5% DMSO concent ration; 4). At 48 h post-infection , cells wer e fix ed
8 DENV envelope protein ) and DRAQ5 (for nucl ear DNA) . Quantifications of DENV
9 envelope protein were determined using the Opera high content imaging s ystem and anal ysis
10 software (Perkin Elmer, USA). Calculation of EC50 values were perfo rmed using Helios
11 software p ackage (Nov ar tis, Basel).
13 Compound testing in DENV2 and HCV sub -genomic replicon assays. A549, BHK -21 and
14 Huh7 DENV2 sub- geno mic replicon cells were seed ed at a d ensit y o f 3,000 cells per w ell
15 in a 384-well microplate. After incubation at 37 °C with 5 % CO2 overnight, the cells were […]
17 µM concentrations. At 48 hr of post-incubation, r enilla luciferas e activities were measured […]

[13] = system: DENV2-NGC virus Wild Type; assay: WT DENV2-NGC virus in A549 cells, plaque assay; details: Dengue virus, DENV2, A549, 48 h, read-out: EC50, DENV2-NGC Virus, Wild Type
Procedure: 8 Plaque assay. Virus stock was produced b y harvesting the supernatant of DENV2 full -length
9 RNA- transf ected BHK -21 cells at 24, 48, 72, 96, and 120 hours post transfection. Virus titer
10 and morphology were determined by st andard plaque assa y. Briefl y, a seri es of 10 -fold
11 dilutions was prepared by first diluting 50 µl virus stock with 450 µl RPMI 1640 m edia
12 containing 2 % FBS to obtain 10-1 dilution and then further diluted until a final 10 -6 dilution
13 was achieved. Confluent BHK-21 cells (1 × 10^5 cells per well, plated 2 da ys in advance)
14 grown in 24-well plate was added with 200 µl of each dilution per well. Duplicates were
15 prepared for each time point and dilution factor. The infection was allowed to proceed at
16 30°C for 1 hour, followed by removing the m edia and adding 500 µl 0.8% methyl-cellulose
17 overla y (containing RPM I, 2 % FBS, 1 % P/S, 0.05 % NaHCO 3, 25 mM Na Hepes, and
18 0.5 % DMSO) into each well. The plates were incubated for 5 da ys at 37 °C in 5 % CO 2
19 before fixing in 3.7 % formaldehyde and staining with 1 % cr ystal violet. The viral titer was
20 calculated as plaque- forming unit (PFU) per ml.

[14] = hamster, 2 days, read-out: CC50, BHK-21
[15] = human, HuH-7 (DENV2 replicon cells), 48 hr, ATP levels
[16] = human, 2 days, read-out: CC50, A549
[17] = Dengue virus, DENV2, Huh-7, 48 h

Row | SMILES | EC50 [1] [µM] | EC50 [2] [µM] | Protein melting temperature Tm with compound, RdRp domain [3] [°C] | CC50 [4, 14] [µM] | CC50 [4, 15] [µM] | CC50 [4, 16] [µM] | EC50 [5] [µM] | EC50 ([6]; 48 hr) [µM] | EC50 [6, 17] [µM] | Tm change compared to DMSO control, DENV2 FL NS5 L511V [7] [°C] | Protein melting temperature, Tm, DENV2 FL NS5 L511V [7] [°C] | CC50 [8] [µM] | Tm change compared to DMSO control, DENV4 FL NS5 L512V [9] [°C] | Protein melting temperature, Tm, DENV4 FL NS5 L512V [9] [°C] | SPR % Rmax [10] [%] | EC50 [11] [µM] | EC50 [12] [µM] | EC50 [13] [µM]
1 | COc1cc(OC)c(-c2ccc(C#CCO)s2)cc1C(=O)NS(=O)(=O)c1cccc2cccnc12 [Compound 29] | 3.8 | 10.2 | 64 | > 50 | > 50 | > 50 | 1 to 5 | 1.9 ± 0.2 | ~2 | 1.0 | 36.5 | > 50 | 1.5 | 38 | 20.9 | 3.55 | 2.8 | 1.11
2 | COc1cccc(S(=O)(=O)NC(=O)c2cc(-c3ccc(C#CCO)s3)c(OC)cc2OC)c1 [Compound 27] | 1.8 ± 0.5 | 1.8 ± 0.2 | 58 | > 50 | > 100 | > 50 | 1 to 5 | – | 3.9 ± 0.62 | 0 | 35.5 | > 50 | 0 | 36.5 | 66.8 | 2.46 | 2.3 | 0.87
3 | COc1cccc(S(=O)(=O)NC(=O)c2cc(-c3ccc(C#CCO)s3)c(OC)cc2C)c1 [Compound 26i] | – | – | – | – | > 50 | > 50 | 12 to 15 | – | 12.1 | – | – | – | – | – | – | – | 15.4 | –
